“And” between values parts separate entries of the source, which are not always exact repeats. Identical values can stand only once. Like-named read-outs stand apart in the source and are kept apart here.
Experiments:
[1] = system: White mold; test: PDA plate inhibition, caprylic acid and organic acids (Example 13); type: cell-based
Experimental: (§1) Potato dextrose agar (PDA) plates, +/−amendments, were inoculated with selected pathogens. There were several replicate plates used per treatment group (per pathogen tested). After incubation of plates at room temperature, fungal growth was measured.

[2] = system: Botrytis cinerea; test: as above; type: cell-based
Experimental: as §1

[3] = system: Septoria; type: cell-based
[4] = system: Late blight; type: cell-based
[5] = system: White mold; type: cell-based
[6] = system: Botrytis cinerea

CCNCC.O=C(O)c1ccccc1O [0.010% diethylamine salicylate, diethylamine salicylate]
Inhibition (%) of white mold [1]: 7%
Inhibition (%) of Botrytis cinerea [2]: 0%

O=C(O)CO [0.0175% glycolic acid, glycolic acid]
Measurement of fungal growth, based on control plate (100%) [3]: 80% and 90%
Measurement of fungal growth, based on control plate (100%) ([4]; Day 2 after inoculum): 79%
Measurement of fungal growth, based on control plate (100%) ([4]; Day 3 after inoculum): 104%
Measurement of fungal growth, based on control plate (100%) [5]: 127% and 108%

O=C(O)C(O)C(O)C(=O)O (centres unmarked) [0.75% tartaric acid, tartaric acid]
Infected berries (% of total) ([6]; Day 2 after treatment): 31%
Infected berries (% of total) ([6]; Day 3 after treatment): 58%

From patent US7820594B2 (priority 2003, dated 2010)
